Entries after “also recorded” stand apart in the source; their conditions may differ.
Experiments:
Format in all cases: cell-based
[1] = target: T1, asc-1 of mouse (co-expressed with 4F2hc of mouse) (Mus musculus, UniProt P63115); test: Michaelis-Menten kinetic test of substrate incorporation by Xenopus oocytes co-expressing asc-1 and 4F2hc; conditions: ratio to the Vmax value for alanine (defined as 1.00)
T1 construct: expressed in transfected cells; host or cells: Xenopus oocytes injected with cRNA
T1 sequence (P63115 1-530): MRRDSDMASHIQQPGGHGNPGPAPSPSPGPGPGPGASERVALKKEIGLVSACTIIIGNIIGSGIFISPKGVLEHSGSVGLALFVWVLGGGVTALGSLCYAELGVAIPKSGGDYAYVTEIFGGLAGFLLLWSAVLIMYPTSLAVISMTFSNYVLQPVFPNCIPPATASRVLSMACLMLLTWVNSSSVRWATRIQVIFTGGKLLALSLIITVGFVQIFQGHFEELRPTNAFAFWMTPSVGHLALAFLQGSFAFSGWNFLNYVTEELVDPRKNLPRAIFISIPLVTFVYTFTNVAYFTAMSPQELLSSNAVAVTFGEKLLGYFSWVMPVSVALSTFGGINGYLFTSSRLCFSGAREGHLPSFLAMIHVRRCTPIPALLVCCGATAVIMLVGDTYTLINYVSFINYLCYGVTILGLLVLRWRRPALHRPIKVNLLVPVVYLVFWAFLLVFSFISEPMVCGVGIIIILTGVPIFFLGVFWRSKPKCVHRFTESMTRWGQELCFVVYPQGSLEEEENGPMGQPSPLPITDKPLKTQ
T1 sequence (P10852 1-526 partner): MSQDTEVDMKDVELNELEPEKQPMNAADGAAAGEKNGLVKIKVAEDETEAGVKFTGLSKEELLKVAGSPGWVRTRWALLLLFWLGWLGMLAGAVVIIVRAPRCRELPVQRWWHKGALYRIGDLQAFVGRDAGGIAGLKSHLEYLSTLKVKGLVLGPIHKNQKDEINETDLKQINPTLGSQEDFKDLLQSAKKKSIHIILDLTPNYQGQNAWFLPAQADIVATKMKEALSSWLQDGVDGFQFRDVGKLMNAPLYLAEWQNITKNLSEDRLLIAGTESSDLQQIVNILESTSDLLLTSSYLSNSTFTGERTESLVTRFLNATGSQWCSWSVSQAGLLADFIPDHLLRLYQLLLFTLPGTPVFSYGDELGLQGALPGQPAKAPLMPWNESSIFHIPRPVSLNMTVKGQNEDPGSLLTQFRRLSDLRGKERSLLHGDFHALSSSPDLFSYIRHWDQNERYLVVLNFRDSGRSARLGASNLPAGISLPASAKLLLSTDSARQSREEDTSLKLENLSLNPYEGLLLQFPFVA
Procedure: Into oocytes were injected 12 ng of asc-1 gene cRNA of mouse, 13 ng of 4F2hc gene cRNA of mouse or 12 ng asc-1 gene cRNA of mouse/13 ng of 4F2hc gene cRNA of mouse to express followed by incubating for 3 days. […] Thus, the oocytes were allowed to stand for 30 minutes in a Na^+-free uptake solution [100 mM choline chloride, 2 mM potassium chloride, 1.8 mM calcium chloride, 1 mM magnesium chloride, 5 mM HEPES; pH 7.4] containing ^14C-alanine (100 μM) as a substrate and the rate of the substrate incorporated into the cells was measured by way of counting the radioactivity incorporated thereinto.
A Michaelis-Menten kinetic test was carried out for a sodium-independent small neutral amino acid transporter asc-1 which transports L- and D-amino acids. By checking the changes in the rate of incorporation of alanine due to the difference in concentration of the alanine substrate, the Michaelis-Menten kinetic test of asc-1 was carried out.
An experiment for the incorporation of alanine was carried out according to the method mentioned in the above Example 2(1) using the oocytes into which both asc-1 gene cRNA of mouse and 4F2hc gene cRNA of mouse were injected.
With regard to amino acids other than alanine which were used as substrates, a Michaelis-Menten kinetic was carried out as well in the same manner whereupon Km values and Vmax values were calculated. Each Vmax value in Table 1 was shown in terms of the ratio when the Vmax value of alanine was defined as 1.00.

[2] = target: T1, asc-1 of mouse (co-expressed with 4F2hc of mouse); test: Release of preloaded 14C-alanine from oocytes co-expressing asc-1 and 4F2hc on extracellular addition of compound; conditions: for increase in the release of preloaded 14C-alanine: 100 μM compound added to Na+-free uptake solution, room temperature
Procedure: (§1) Release of a preloaded ^14C-alanine mediated by asc-1 was checked in the oocytes into which both asc-1 gene cRNA and 4F2hc gene cRNA of mouse were injected together. ^14C-Alanine (−3nCi) of 100 μM in an amount of 100 nl was injected into the oocytes into which both asc-1 gene cRNA and 4F2hc gene cRNA of mouse were injected together, washed with an ice-cooled Na^+-free uptake solution containing no alanine and transferred to a Na^+-free uptake solution to which alanine (100 μM) was added or not added at room temperature (18° C.-22° C.) and the amount of ^14C-alanine released outside the cells was measured.
In oocytes into which cRNA of asc-1 gene and cRNA of 4F2hc gene of mouse were injected together, release of preloaded ^14C-alanine mediated by asc-1 was investigated whereupon it was checked whether the compound which inhibited the incorporation of ^14C-alanine mediated by asc-1 was a substrate of asc-1.
as §1, with “^14C-Alanine” for “Release of a preloaded ^14C-alanine mediated by asc-1 was checked in the oocytes into which both asc-1 gene cRNA and 4F2hc gene cRNA of mouse were injected together. ^14C-Alanine”, “which amino acid or amino acid analog” for “which alanine”
Black bars in FIG. 18 are the case where there were used oocytes into which cRNA of mouse asc-1 gene and cRNA of mouse 4F2hc gene were injected while white bars are the case where there were used oocytes into which water was injected instead of cRNA as a control.

[3] = target: T2, intracellular substrate-binding site of asc-1 of mouse (Mus musculus, UniProt P63115); test: Release of injected 14C-amino acid from oocytes co-expressing asc-1 and 4F2hc on extracellular alanine; conditions: alanine 100 μM added to Na+-free uptake solution
T2 construct: expressed in transfected cells; host or cells: Xenopus oocytes injected with cRNA
T2 sequence (P63115 1-530): T1 sequence (P63115 1-530)
T2 sequence (P10852 1-526 partner): T1 sequence (P10852 1-526 partner)
Procedure: In oocytes into which cRNA of asc-1 gene and cRNA of 4F2hc gene of mouse were injected together, release of preloaded ^14C-amino acid mediated by asc-1 was checked whereby the substrate selectivity of intracellular substrate-binding site of asc-1 was checked.
^14C-Amino acid (˜3nCi) of 100 μM in an amount of 100 nl was injected into the oocytes into which both asc-1 gene cRNA and 4F2hc gene cRNA of mouse were injected together, washed with an ice-cooled Na^+-free uptake solution containing no alanine and transferred to a Na^+-free uptake solution to which alanine (100 μM) was added or not added at room temperature (18° C.-22° C.) and the amount of ^14C-amino acid released outside the cells was measured.
Black bars in FIG. 21 show the case where alanine was added to a Na^+-free uptake solution while bars with oblique lines show the case where alanine was not added to a Na^+-free uptake solution.

| SMILES | Vmax [1] | increase in the release of preloaded 14C-alanine [2] | release of 14C-alanine without alanine outside the cells ([2]; alanine not added to Na+-free uptake solution) | release of injected 14C-labeled amino acid by extracellular alanine [3] |
| --- | --- | --- | --- | --- |
| C[C@H](N)C(=O)O [L-Alanine] | (1.00) | significantly increased; also recorded: high increase | significant release | increase in release |
| N[C@@H](CO)C(=O)O [L-Serine] | 1.02 | high increase |  | increase in release |
